From patent publication US20260345553A1, “COMPOSITION FOR TREATING CANCER COMPRISING HISTONE DEACETYLASE INHIBITOR, AND ANTICANCER ADJUVANT FOR CANCER IMMUNOTHERAPY” (SAMSUNG LIFE PUBLIC WELFARE FOUNDATION, priority 2022, published 2026)

What was measured:
[1] = Body weight of mice, HDAC6 inhibitor animal experiment; type: in vivo, BALB/C mice; conditions: HDAC6i 20 mpk i.p. daily; FIG. 9D
Procedure: The animal experiment using an HDAC6 inhibitor was conducted using a total of three groups, a control group (control), an HDAC6i (Next A) group, and an HDAC6i (Next A)+anti-PD-L1 group. Nexturastat A (SellekChem) was used as HDAC6i (HDAC6 inhibitor), and #BE0101 (Bioxcell) was used as an anti-PD-L1 antibody. CT26 (1×10^6) cells and BALB/C mice were used. Three mice for the control group, three mice for the HDAC6i group, and four mice for the HDAC6i+anti-PD-L1 group were used.
• HDAC6i group: HDAC6i 20 mpk (mg/kg) intraperitoneally injected daily • HDAC6i+anti-PD-L1 group: HDAC6i 20 mpk intraperitoneally injected every day and anti-PD-L1 antibody 10 mpk intraperitoneally injected three times per week.

CT26 tumor = assay: CD8 T cell-dependent CT26 tumor growth suppression with anti-CD8a pre-treatment; type: in vivo, BALB/C mice; conditions: concluded from anti-CD8a blocking
Procedure: To examine the hypothesis that an HDAC6 inhibitor suppresses CT26 tumor growth in a CD8 T cell-dependent manner, an experiment on the combination with anti-CD8a antibody was further conducted by pre-treatment with anti-CD8a antibody, which binds to CD8 T cells. The experiment was conducted by intraperitoneally administering an anti-CD8a antibody to animals from 3 days before tumor cell injection at 3-day intervals to inhibit CD8 T cells and administering an HDAC6 inhibitor and an anti-PD-L1 antibody.
Specifically, the experiment was conducted on a total of four groups: a control group, an anti-CD8a group, an HDAC6i (Next A)+anti-PD-L1 group, and an HDAC6i (Next A)+anti-PD-L1+anti-CD8a group. CT26 cells (1×10^6) for a cell line, Nexturastat A (SellekChem) as HDAC6i (HDAC6 inhibitor), #BE0101 (Bioxcell) as an anti-PD-L1 antibody, and #BE017 (Bioxcell) as an anti-CD8a antibody were used. BALB/C mice were used. In addition, 6 mice for the control group, 6 mice for the anti-CD8a group, 6 mice for the HDAC6i (Next A)+anti-PD-L1 group, and 8 mice for the HDAC6i (Next A)+anti-PD-L1+anti-CD8a group were used. […]

PD-L1 [2] = assay: PD-L1 expression by HDAC6 inhibitor, MSI versus MSS colorectal cancer cell lines; type: cell-based; conditions: IC50 and half-IC50; MSI DLD-1, HCT116, MC38; MSS SW620, HT29, CT26; FIG. 15
Procedure: (§1) The IC50 values of the HDAC6 inhibitor (Nexturastat A) in three MSI colorectal cancer cell lines (DLD-1, HCT116, and MC38) and three MSS colorectal cancer cell lines (SW620, HT29, and CT26) were determined. The cells were then treated with the inhibitor at the IC50 and half-IC50 concentrations (concentration corresponding to ½ of the IC50 value), and the expression levels of the immune checkpoint proteins PD-L1 and B7H3 were measured.

B7H3 = B7H3 expression by HDAC6 inhibitor, MSI versus MSS colorectal cancer cell lines; type: cell-based; conditions: IC50 and half-IC50; MSI DLD-1, HCT116, MC38; MSS SW620, HT29, CT26; FIG. 15
Procedure: as §1

PD-L1 [3] = assay: PD-L1 expression (RNA and protein) after HDAC inhibitor treatment in colorectal cell lines; type: cell-based, human, mouse; conditions: for PD-L1 expression in MSS compared with MSI colorectal cell lines: MSS compared with MSI colorectal cell lines (summary statement); for PD-L1 expression upon HDAC inhibitor treatment, MSS cell lines: SW620, LS513, and CT26, IC50 and ½ IC50, 48 hours, HDAC3 inhibitor compared with HDAC6 and HDAC8 (FIG. 2), HDAC8 inhibitor concentration-dependent (FIG. 6)
Procedure: (§2) The HDAC3 inhibitor experiment was conducted by harvesting cells 48 hours after the treatment at each inhibitor concentration and obtaining RNA and proteins. RGFP966 (S7229) purchased from SellekChem was used as an HDAC3 inhibitor. Specifically, SW620, LS513, DLD-1, CT26, and MC38 were individually cultured, and the experiments were conducted using the IC50 and ½ IC50 concentration on the basis of the previously determined IC50 concentration. RNA and protein samples were collected 48 hours after RGFP966 treatment. The RNA samples were isolated using the TRIzol, isopropanol, and chloroform, and the protein samples were collected by lysis with a lysis buffer (Roche, 4719956001). RNA was synthesized into cDNA using a cDNA synthesis kit (Bioneer, K-2044-B), and real-time PCR was performed using a method according to SYBR (Applied Biosystems, 4367659). Proteins were quantified using the Bradford assay (Bio-Rad, 50000006), and subjected to loading, transfer, blocking (3% skim milk; BD, 232100), primary antibody (24 h, 4 °C), and secondary antibody sequentially, thereby developing PD-L1.
The HDAC6 inhibitor experiment was conducted by the same method as in the HDAC3 inhibitor experiment of Experimental Example 3, and Nexturastat A HDAC6 selective inhibitor purchased from SellekChem was used as an HDAC6 inhibitor.
The HDAC8 inhibitor experiment was conducted by the same method as in the HDAC3 inhibitor experiment of Experimental Example 3, and PCI-34051 HDAC8 selective inhibitor purchased from SellekChem was used as an HDAC8 inhibitor.
The HDAC6 and HDAC8 inhibitor experiment was conducted by harvesting cells 48 hours after the treatment and then obtaining RNA and proteins.

PD-L1 [4] = assay: PD-L1 expression after HDAC3 inhibitor treatment in mouse cells; type: cell-based; conditions: IC50 and ½ IC50, 48 hours, FIG. 2
Procedure: as §2

Structure (SMILES) | body weight of the animals [1] | CD8 T cell dependence of CT26 tumor growth suppression (CT26 tumor) | PD-L1 expression in MSS compared with MSI cell line (PD-L1 [2]) | B7H3 expression in MSS compared with MSI cell line (B7H3) | PD-L1 expression at the RNA and protein levels upon HDAC6 inhibitor treatment (PD-L1 [3]; MSS cell lines SW620, LS513, HT29, and CT26, depending on the concentration, 48 hours, FIG. 4) | PD-L1 expression in MSS compared with MSI colorectal cell lines (PD-L1 [3]) | PD-L1 expression upon HDAC inhibitor treatment, MSS cell lines (PD-L1 [3]) | PD-L1 expression upon HDAC3 inhibitor treatment, mouse cells (PD-L1 [4])
CCCCN(Cc1ccc(C(=O)NO)cc1)C(=O)Nc1ccccc1 [Nexturastat A] | not reduced | suppressed CT26 tumor growth in a CD8 T cell-dependent manner | distinct increase tendencies | distinct increase tendencies | increase in PD-L1 expression at the RNA and protein levels | further up-regulated | – | –
COc1ccc(Cn2ccc3ccc(C(=O)NO)cc32)cc1 [PCI-34051] | – | – | – | – | – | further up-regulated | increase in PD-L1 expression at the RNA and protein levels | –
Nc1cc(F)ccc1NC(=O)/C=C/c1cnn(C/C=C/c2ccccc2)c1 [RGFP966] | – | – | – | – | – | – | small increases | decrease tendency
